The values that follow come from patent publication US20250346602A1, “LACTAM SUBSTITUTED IMIDAZOPYRIDAZINE IL-17A MODULATORS AND USES THEREOF” (DICE ALPHA, INC., priority 2022, published 2025).

The assay concerns the target T1, IL-17A/A (Homo sapiens, UniProt Q16552).
T1 construct: purchased Genscript Z03228
T1 sequence (Q16552 24-155): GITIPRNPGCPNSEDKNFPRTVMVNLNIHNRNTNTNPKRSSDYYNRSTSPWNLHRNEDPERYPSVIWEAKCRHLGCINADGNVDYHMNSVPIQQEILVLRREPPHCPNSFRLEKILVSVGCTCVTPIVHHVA
Description: IL-17A/A HEK-Blue cell assay. The assay is classed as cell-based. The settings on record: HEK-Blue IL-17A reporter cell line (HEK 293), IL-17A/A stimulation, 20 hours incubation, SEAP read at A630. As to the method:
The HEK-Blue IL-17A reporter cell line (Fisher #NC1408637) was used for cell-based IL-17A/A inhibition assays. Cells were grown and prepared for assays according to the manufacturer's instructions. This cell line consists of HEK 293 cells that were designed to expressed IL-17RA, IL-17RC, and the ActI adapter molecule, the combination of which, when stimulated by IL-17A/A activates a NFκB promoter and drives expression of a recombinant Secreted Alkaline Phosphatase (SEAP) gene protein. Media from the cells is then added to a development reagent (Quanti-Blue Substrate, Fisher #NC9711613), and read at A630.
Compounds were titrated in DMSO, with a top final compound concentration of 10 uM, 1 uM, or 0.3 uM, and added to the cells immediately before adding IL-17A/A (Genscript #Z03228). The cells, compound, and IL-17A/A were then incubated for 20 hours before media was removed for SEAP analysis. The resulting inhibition curve was then analyzed using Graphpad Prism 7.0, and IC50 values were determined using a 4-parameter nonlinear fit. DMSO was added to a universal final concentration of 0.1% to optimize background.
One may read the IC50 as the concentration that inhibits the measured activity by half. `CCn1nccc1C(=O)N[C@H](c1cn2nc(C[C@@H]3CCCNC3=O)ccc2n1)[C@H]1CC[C@H](C)CC1` [Compound 39, 1-ethyl-N—((S)-((1r,4S)-4-methylcyclohexyl)(6-(((S)-2-oxopiperidin-3-yl)methyl)imidazo[1,2-b]pyridazin-2-yl)methyl)-1H-pyrazole-5-carboxamide]: the IC50 was in the range of 100 to 1000 nM.
As to `CC(C)c1nonc1C(=O)N[C@H](c1cn2nc(CC3C[C@@H](C(F)(F)F)CNC3=O)ccc2n1)C1CCC(F)(F)CC1` (stereo partly drawn) [Compound 117, N-((1S)-(4,4-difluorocyclohexyl)(6-(((5R)-2-oxo-5-(trifluoromethyl)piperidin-3-yl)methyl)imidazo[1,2-b]pyridazin-2-yl)methyl)-4-isopropyl-1,2,5-oxadiazole-3-carboxamide], the IC50 was under 100 nM.
For `O=C(N[C@H](c1cn2nc(CC3C[C@@H](C(F)(F)F)CNC3=O)ccc2n1)C1CCC(F)(F)CC1)c1conc1C1CC1(F)F` (single isomer, unassigned) [Compound 127], the IC50 was under 100 nM.
Turning to `O=C(N[C@H](c1cn2nc(CC3C[C@H](C(F)(F)F)CNC3=O)ccc2n1)[C@@H]1CCCC(F)(F)C1)c1conc1C1CC1` (stereo partly drawn) [Compound 158, 3-cyclopropyl-N-((1S)—((R)-3,3-difluorocyclohexyl)(6-(((5S)-2-oxo-5-(trifluoromethyl)piperidin-3-yl)methyl)imidazo[1,2-b]pyridazin-2-yl)methyl)isoxazole-4-carboxamide], the IC50 lay within 100 to 1000 nM.
With `CCN(C)c1cc2nc([C@@H](NC(=O)c3ccnn3CC)C3CCC(F)(F)CC3)cn2nc1CC1C[C@@H](C(F)(F)F)CNC1=O` (single isomer, unassigned) [Compound 89] the figure was under 100 nM; with `CCn1nccc1C(=O)N[C@H](c1cn2nc(CC3C(=O)NCC3C(F)(F)F)ccc2n1)C(C1CC1)C1CC1` (single isomer, unassigned) [Compound 44], 100 to 1000 nM; with `CCn1nccc1C(=O)N[C@H](c1cn2nc(CC3C[C@H](C(F)(F)F)NC3=O)ccc2n1)C1CCC(F)(F)CC1` (single isomer, unassigned) [Compound 23], over 1000 nM.
`CCn1nccc1C(=O)N[C@H](c1cn2ncc(CC3C[C@@H](C(F)(F)F)CNC3=O)cc2n1)[C@H]1CC[C@H](C)CC1` (single isomer, unassigned) [Compound 216]: the IC50 was 100 to 1000 nM.
Regarding `CCn1nccc1C(=O)NC(c1cn2nc(CC3C[C@@H](C(F)(F)F)CNC3=O)ccc2n1)C1CCC2CC2CC1` (single isomer, unassigned) [Compound 174], the IC50 is over 1000 nM.
`CCn1nccc1C(=O)N[C@H](c1cn2nc(C[C@H]3CCCNC3=O)ccc2n1)C(C1CC1)C1CC1` (single isomer, unassigned) [Compound 34]: the IC50 is over 1000 nM.
As to `CCn1nccc1C(=O)N[C@H](c1cn2nc(CC3CC(C)(C)CNC3=O)ccc2n1)[C@H]1CC[C@H](C)CC1` (stereo partly drawn) [Compound 58, N-((1S)-(6-((5,5-dimethyl-2-oxopiperidin-3-yl)methyl)imidazo[1,2-b]pyridazin-2-yl)((1r,4S)-4-methylcyclohexyl)methyl)-1-ethyl-1H-pyrazole-5-carboxamide], the IC50 was over 1000 nM.
As for `CCn1nccc1C(=O)N[C@H](c1cn2nc(CC3CC(F)(F)CNC3=O)c(OC)cc2n1)C1CCC(F)(F)CC1` (stereo partly drawn) [Compound 75, N-((1S)-(6-((5,5-difluoro-2-oxopiperidin-3-yl)methyl)-7-methoxyimidazo[1,2-b]pyridazin-2-yl)(4,4-difluorocyclohexyl)methyl)-1-ethyl-1H-pyrazole-5-carboxamide], the half-inhibitory concentration (IC50) is over 1000 nM.
The value for `O=C1NC[C@H](C(F)(F)F)CC1Cc1ccc2nc([C@@H](NC(=O)C3CC34CC(F)(F)C4)C3CCC(F)(F)CC3)cn2n1` (single isomer, unassigned) [Compound 131] was 100 to 1000 nM; that for `CCn1nccc1C(=O)N[C@H](c1cn2nc(CC3C[C@@H](C(F)(F)F)NC3=O)ccc2n1)C(C1CC1)C1CC1` (single isomer, unassigned) [Compound 8] was 100 to 1000 nM.
In the case of `Cc1nonc1C(=O)N[C@H](c1cn2nc(C[C@H]3CCCNC3=O)ccc2n1)C(C1CC1)C1CC1` [Compound 36, N—((S)-2,2-dicyclopropyl-1-(6-(((R)-2-oxopiperidin-3-yl)methyl)imidazo[1,2-b]pyridazin-2-yl)ethyl)-4-methyl-1,2,5-oxadiazole-3-carboxamide], the IC50 is over 1000 nM.
On to `Cc1nonc1C(=O)N[C@H](c1cn2nc(C[C@H]3C[C@@H](C(F)(F)F)NC3=O)ccc2n1)C1CCC(F)(F)CC1` [Compound 18, N—((S)-(4,4-difluorocyclohexyl)(6-(((3R,5S)-2-oxo-5-(trifluoromethyl)pyrrolidin-3-yl)methyl)imidazo[1,2-b]pyridazin-2-yl)methyl)-4-methyl-1,2,5-oxadiazole-3-carboxamide], for which the 50% inhibitory concentration (IC50) was over 1000 nM.
With `O=C(N[C@H](c1cn2nc(CC3C[C@H](C(F)(F)F)CNC3=O)ccc2n1)[C@H]1CCCC(F)(F)C1)c1conc1C1CC1` (stereo partly drawn) [Compound 157, 3-cyclopropyl-N-((1S)—((S)-3,3-difluorocyclohexyl)(6-(((5S)-2-oxo-5-(trifluoromethyl)piperidin-3-yl)methyl)imidazo[1,2-b]pyridazin-2-yl)methyl)isoxazole-4-carboxamide], the IC50 is under 100 nM.
With `CCc1nonc1C(=O)N[C@H](c1cn2nc(CC3C[C@@H](C(F)(F)F)CNC3=O)ccc2n1)C1CCC(F)(F)CC1` (stereo partly drawn) [Compound 112, N-((1S)-(4,4-difluorocyclohexyl)(6-(((5R)-2-oxo-5-(trifluoromethyl)piperidin-3-yl)methyl)imidazo[1,2-b]pyridazin-2-yl)methyl)-4-ethyl-1,2,5-oxadiazole-3-carboxamide], the IC50 lay in the range of 100 to 1000 nM.
`Cc1nonc1C(=O)N[C@H](c1cn2nc(CC3C[C@@H](C(F)(F)F)CNC3=O)ccc2n1)C1CCC(F)(F)CC1` (stereo partly drawn) [Compound 100, N-((1S)-(4,4-difluorocyclohexyl)(6-(((5R)-2-oxo-5-(trifluoromethyl)piperidin-3-yl)methyl)imidazo[1,2-b]pyridazin-2-yl)methyl)-4-methyl-1,2,5-oxadiazole-3-carboxamide]: the half-maximal inhibitory concentration (IC50) lay in the range of 100 to 1000 nM.
Consider `CCn1nccc1C(=O)N[C@H](c1cn2nc(C(C)C3C[C@@H](C(F)(F)F)CNC3=O)ccc2n1)C(C1CC1)C1CC1` (single isomer, unassigned) [Compound 57], for which the concentration for half-maximal inhibition (IC50) is over 1000 nM.
As for `CCn1nccc1C(=O)N[C@H](c1cn2ncc(CC3C[C@@H](C(F)(F)F)NC3=O)cc2n1)C1CCCCCC1` (mixture of isomers) [Compound 207, N-((l S)-cycloheptyl(7-(((5S)-2-oxo-5-(trifluoromethyl)pyrrolidin-3-yl)methyl)imidazo[1,2-b]pyridazin-2-yl)methyl)-1-ethyl-1H-pyrazole-5-carboxamide], the IC50 is under 100 nM.
In the case of `CCn1nccc1C(=O)N[C@H](c1cn2nc(CC3CC(F)(F)CNC3=O)c(N(C)C)cc2n1)C1CCC(F)(F)CC1` (single isomer, unassigned) [Compound 87], the IC50 is under 100 nM.
With `O=C(N[C@H](c1cn2nc(CC3C[C@@H](C(F)(F)F)CNC3=O)ccc2n1)C1CCC(F)(F)CC1)c1ccnn1C1CC1(F)F` (single isomer, unassigned) [Compound 99], the IC50 was in the range of 100 to 1000 nM.
In the case of `O=C1NC[C@H](C(F)(F)F)CC1Cc1ccc2nc([C@@H](NC(=O)C3CC34CC(F)(F)C4)C3CCC(F)(F)CC3)cn2n1` (single isomer, unassigned) [Compound 130], the IC50 was over 1000 nM.
Consider `CCn1nccc1C(=O)N[C@H](c1cn2nc(CC3CC(F)(F)CNC3=O)ccc2n1)C1CCCCCC1` (single isomer, unassigned) [Compound 10, N-((1 S)-cycloheptyl(6-((5,5-difluoro-2-oxopiperidin-3-yl)methyl)imidazo[1,2-b]pyridazin-2-yl)methyl)-1-ethyl-1H-pyrazole-5-carboxamide], for which the IC50 lay in the range of 100 to 1000 nM.
Consider `CCn1nccc1C(=O)N[C@H](c1cn2nc(CC3C[C@H](C(F)(F)F)CNC3=O)ccc2n1)C1CCCCCC1` (stereo partly drawn) [Compound 177, N—((S)-cycloheptyl(6-(((5S)-2-oxo-5-(trifluoromethyl)piperidin-3-yl)methyl)imidazo[1,2-b]pyridazin-2-yl)methyl)-1-ethyl-1H-pyrazole-5-carboxamide], for which the IC50 was under 100 nM.
The value for `CCn1nccc1C(=O)N[C@H](c1cn2nc(CC3CCCNC3=O)ccc2n1)C1CCC(F)(F)CC1` (single isomer, unassigned) [Compound 13, N-((1 S)-(4,4-difluorocyclohexyl)(6-((2-oxopiperidin-3-yl)methyl)imidazo[1,2-b]pyridazin-2-yl)methyl)-1-ethyl-1H-pyrazole-5-carboxamide] was 100 to 1000 nM.
Turning to `CCn1nccc1C(=O)N[C@H](c1cn2nc(CC3C[C@@H](C(F)(F)F)CNC3=O)ccc2n1)C1CCC(F)(F)CC1` (stereo partly drawn) [Compound 95, N-((1S)-(4,4-difluorocyclohexyl)(6-(((5R)-2-oxo-5-(trifluoromethyl)piperidin-3-yl)methyl)imidazo[1,2-b]pyridazin-2-yl)methyl)-1-ethyl-1H-pyrazole-5-carboxamide], the IC50 lay in the range of 100 to 1000 nM.
